Results on 16 molecules are retold here after US8536202B2, “Triazole-substituted anthranilamides as pesticides” (Bayer Cropscience AG, priority 2010, dated 2013).

One series concerns Boophilus microplus. The series is described as follows: Boophilus microplus test (BOOPMI injection). In kind it is in vivo. The settings on record: Rhipicephalus microplus, 168 h, 20 μg/animal, after 7 days, read-out: activity in % (no fertile eggs laid). As for the experimental part: (§1) Solvent: dimethyl sulphoxide
An appropriate preparation of active compound is prepared by mixing 10 mg of active compound with 0.5 ml of solvent and diluting the concentrate with solvent to the desired concentration. The solution of active compound is injected into the abdomen (Boophilus microplus), and the animals are transferred to dishes and kept in a climatized room. Activity is assessed by deposition of fertile eggs.
After 7 days, the activity in % is assessed. Here, 100% means that none of the ticks has laid fertile eggs.

In a further series the test system is adult Musca domestica. In words: Musca domestica test (MUSCDO). In kind it is in vivo. Particulars: 48 h, read-out: kill in %. As for the experimental part: as §1
An appropriate preparation of active compound is prepared by mixing 10 mg of active compound with 0.5 ml of dimethyl sulphoxide and diluting the concentrate with water to the desired concentration. Vessels containing a sponge treated with the preparation of active compound at the desired concentration are populated with adult Musca domestica.
After 2 days, the kill in % is ascertained. Here, 100% means that all of the flies have been killed; 0% means that no flies have been killed.

The subject of series [1] is larvae of the mustard beetle (Phaedon cochleariae). The series is described as follows: Phaedon test (PHAECO spray treatment). In kind it is in vivo. Particulars: 168 h, 100 g/ha, after 7 days, read-out: activity in %. The method in brief: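 Mortality of mustard beetle larvae, expressed as percent killed (100% all, 0% none), assessed 7 days after spraying. Spray liquor made from compound in acetone plus dimethylformamide with alkylaryl polyglycol ether, diluted in emulsifier-containing water to the desired concentration.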

Series [2] relates to caterpillars of the armyworm (Spodoptera frugiperda). In words: Spodoptera frugiperda test (SPODFR spray treatment). Particulars: 168 h, 100 g/ha, after 7 days, read-out: activity in %. In kind it is in vivo. The method in brief: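 Percent caterpillar mortality read 7 days after infestation (0% none killed, 100% all killed). Treatment was a spray of the acetone/DMF/emulsifier formulation, water-diluted to test concentration, onto Zea mays leaf discs, allowed to dry before larvae were added.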

The subject of a further series is Lucilia cuprina larvae. In words: Lucilia cuprina test (LUCICU). In kind it is in vivo. The settings on record: 48 h, read-out: kill in %. As for the experimental part: as §1
An appropriate preparation of active compound is prepared by mixing 10 mg of active compound with 0.5 ml of dimethyl sulphoxide and diluting the concentrate with water to the desired concentration.
Vessels containing horse meat treated with the preparation of active compound at the desired concentration are populated with approximately 20 Lucilia cuprina larvae.
After 2 days, the kill in % is ascertained. Here, 100% means that all of the larvae have been killed; 0% means that no larvae have been killed.

A short description of series [3]: log P determination by HPLC on reversed-phase columns (EEC Directive 79/831 Annex V.A8). In kind it is physicochemical. The settings on record: pH 2.7. The method in brief:
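Calibration used unbranched alkan-2-ones of 3 to 16 carbons with known log P, values interpolated linearly from retention times between neighbouring standards. Acidic-range LC-MS run at pH 2.7, eluents aqueous and acetonitrile formic acid 0.1%, linear gradient 10% to 95% acetonitrile.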

The test system of series [4] is green peach aphid (Myzus persicae). In words: Myzus test (MYZUPE spray treatment), Use Example 4. The series is classed as in vivo. Particulars: 144 h, 100 g/ha, after 6 days, read-out: activity in %. The method in brief: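 Compound was formulated in acetone/dimethylformamide with alkylaryl polyglycol ether emulsifier and diluted in emulsifier-containing water. It was sprayed onto Chinese cabbage leaf discs infested with all stages of Myzus persicae. Mortality (%) was scored after 6 days, where 100% means all aphids killed.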

Setting [5] is: reversed-phase C18 HPLC column, HPLC on reversed-phase columns (C 18), EEC Directive 79/831 Annex V.A8, read-out: logP.

Like-named read-outs stand apart in the source and are kept apart here.

For the molecule `Cc1cc(Cl)cc(C(=O)NC2CC2)c1NC(=O)c1cc(Cn2cc(C(F)(C(F)(F)F)C(F)(F)F)nn2)nn1-c1ncccc1Cl` [Example 232], the pest or weed control at 0.02 mg with Boophilus microplus was 100%. Also, the pest or weed control at 100 ppm in the series on adult Musca domestica and with Lucilia cuprina larvae was 100% each time. Further, the pest or weed control at 100 g/ha is 100% in series [1], 100% in series [2] and 80% in series [4]. This molecule also yielded a chromatographic logP in series [3] of 3.61.
Turning to `CNC(=O)c1cc(Br)cc(C)c1NC(=O)c1cc(Cn2ncc(C(F)(F)F)n2)nn1-c1ncccc1Cl` [Example 172], the pest or weed control at 0.02 mg in the series with Boophilus microplus stood at 100%. Moreover, the pest or weed control at 100 ppm is 80% in the series with adult Musca domestica and 100% with Lucilia cuprina larvae. Besides, the pest or weed control at 100 g/ha in series [1], in series [2] and in series [4] was 100% throughout. The molecule further came in with a chromatographic logP in series [3] of 3.1.
In the case of `Cc1cc(C#N)cc(C(=O)NC(C)(C)C)c1NC(=O)c1cc(Cn2ncc(C(F)(F)F)n2)nn1-c1ncccc1Cl` [Example 129], the pest or weed control at 0.02 mg in the series with Boophilus microplus is 100%. The values for the pest or weed control at 100 ppm with adult Musca domestica and in the series with Lucilia cuprina larvae were 80% and 100%, respectively. For the same molecule, the pest or weed control at 100 g/ha in series [1], in series [2] and in series [4] was 100% throughout. Besides, the chromatographic logP in series [3] is 3.46.
As for `CNC(=O)c1cc(C#N)cc(C)c1NC(=O)c1cc(Cn2ncc(C(F)(F)F)n2)nn1-c1ncccc1Cl` [Example 124], the pest or weed control at 0.02 mg in the series on Boophilus microplus amounted to 100%. For the same molecule, the pest or weed control at 100 ppm with adult Musca domestica amounted to 80%; in the series with Lucilia cuprina larvae it was 100%. Besides, the pest or weed control at 100 g/ha in series [1], in series [2] and in series [4] was 100% throughout. This molecule also showed a chromatographic logP in series [3] of 2.68.
Turning to `Cc1cc(Cl)cc(C(N)=O)c1NC(=O)c1cc(Cn2ncc(C(F)(F)F)n2)nn1-c1ncccc1Cl` [Example 134], the pest or weed control at 0.02 mg in the series on Boophilus microplus was 100%. The pest or weed control at 100 ppm with adult Musca domestica and with Lucilia cuprina larvae was 100% in each case. The pest or weed control at 100 g/ha in series [1], in series [2] and in series [4] was 100% in each case. In series [3], this molecule showed a chromatographic logP of 2.7.
As for `Cc1cc(Cl)cc(C(N)=O)c1NC(=O)c1cc(Cn2ncc(C(F)(C(F)(F)F)C(F)(F)F)n2)nn1-c1ncccc1Cl` [Example 263], the pest or weed control at 0.02 mg in the series on Boophilus microplus was 100%. For the same molecule, the pest or weed control at 100 ppm in the series with adult Musca domestica and with Lucilia cuprina larvae was 100% in each case. The pest or weed control at 100 g/ha in series [1] was 100%; in series [2], 100%; in series [4], 80%. In addition, the chromatographic logP in series [3] was found to be 3.48.
Consider `Cc1cc(C#N)cc(C(=O)NC(C)(C)C)c1NC(=O)c1cc(Cn2cc(C(F)(F)F)nn2)nn1-c1ncccc1Br` [Example 7], for which the pest or weed control at 0.02 mg in the series on Boophilus microplus was 100%. The pest or weed control at 100 g/ha in series [1], in series [2] and in series [4] was 100% each time. For the same molecule, the pest or weed control at 100 ppm with Lucilia cuprina larvae (100 ppm, after 2 days) worked out at 100%. In addition, in series [3] (setting [5]), the chromatographic logP was 3.44.
Regarding `CNC(=O)c1cc(Cl)cc(C)c1NC(=O)c1cc(Cn2nnc3cc(C(F)(F)F)ccc32)nn1-c1ncccc1Cl` [Example 70], the pest or weed control at 0.02 mg with Boophilus microplus came out at 100%. Also, the pest or weed control at 100 g/ha in series [1], in series [2] and in series [4] was 100% each time. In the series with Lucilia cuprina larvae, the pest or weed control at 100 ppm was determined as 100%. This molecule also had a chromatographic logP in series [3] of 3.13.
As to `CC(C)(C)NC(=O)c1cc(Cl)cc(Cl)c1NC(=O)c1cc(Cn2ncc(C(F)(F)F)n2)nn1-c1ncccc1Cl` [Example 151], in the series with Boophilus microplus, the pest or weed control at 0.02 mg turned out to be 100%. The pest or weed control at 100 g/ha in series [1], in series [2] and in series [4] was 100% in each case. In addition, the pest or weed control at 100 ppm in the series with Lucilia cuprina larvae worked out at 100%. In series [3], the chromatographic logP amounted to 3.8.
As for `CNC(=O)c1cc(Cl)cc(C)c1NC(=O)c1cc(Cn2ncc(C(F)(F)F)n2)nn1-c1ncccc1Cl` [Example 135], in the series on Boophilus microplus, the pest or weed control at 0.02 mg was determined as 100%. Also, the pest or weed control at 100 g/ha amounted to 100% in series [1], 100% in series [2] and 90% in series [4]. Further, in the series on Lucilia cuprina larvae, the pest or weed control at 100 ppm was found to be 100%. Moreover, in series [3], the chromatographic logP worked out at 2.99.
As to `Cc1cc(I)cc(C(=O)NC(C)(C)C)c1NC(=O)c1cc(Cn2ncc(C(F)(F)F)n2)nn1-c1ncccc1Cl` [Example 162], the pest or weed control at 0.02 mg in the series with Boophilus microplus was 100%. Moreover, the pest or weed control at 100 g/ha in series [1] and in series [2] was 100% in each case. Also, the pest or weed control at 100 ppm in the series on Lucilia cuprina larvae was found to be 100%. The chromatographic logP in series [3] was found to be 4.11.
Take `CSC[C@H](C)NC(=O)c1cc(Cl)cc(Cl)c1NC(=O)c1cc(Cn2ncc(C(F)(F)F)n2)nn1-c1ncccc1Cl` [Example 155]: the pest or weed control at 0.02 mg in the series with Boophilus microplus is 100%. Also, the pest or weed control at 100 g/ha in series [1], in series [2] and in series [4] was 100% throughout. In addition, the pest or weed control at 100 ppm with Lucilia cuprina larvae was 100%. This molecule also returned a chromatographic logP in series [3] of 3.64.
Regarding `Cc1cc(Br)cc(C(=O)NC2CC2)c1NC(=O)c1cc(Cn2ncc(C(F)(F)F)n2)nn1-c1ncccc1Cl` [Example 174], in the series with Boophilus microplus, the pest or weed control at 0.02 mg was found to be 100%. Further, the pest or weed control at 100 g/ha in series [1], in series [2] and in series [4] was 100% throughout. Also, the pest or weed control at 100 ppm with Lucilia cuprina larvae was determined as 100%. In series [3], this molecule gave a chromatographic logP of 3.28.
Regarding `NC(=O)c1cc(Cl)cc(Cl)c1NC(=O)c1cc(Cn2cc(C(F)(C(F)(F)F)C(F)(F)F)nn2)nn1-c1ncccc1Cl` [Example 247], the pest or weed control at 0.02 mg in the series with Boophilus microplus is 100%. The pest or weed control at 100 ppm in the series with adult Musca domestica and with Lucilia cuprina larvae was 100% throughout. Also, the pest or weed control at 100 g/ha in series [1] and in series [2] was 100% throughout. The same molecule had a chromatographic logP in series [3] of 3.13.
For `Cc1cc(Cl)cc(C(=O)NC(C)C2CC2)c1NC(=O)c1cc(Cn2ncc(C(F)(F)F)n2)nn1-c1ncccc1Cl` (stereo not shown) [Example 136], in the series with Boophilus microplus, the pest or weed control at 0.02 mg came out at 100%. Also, the pest or weed control at 100 g/ha in series [1] and in series [2] was 100% in each case. In addition, the pest or weed control at 100 ppm with Lucilia cuprina larvae came out at 100%. This molecule also gave a chromatographic logP in series [3] of 3.8.
As to `Cc1cc(C#N)cc(C(=O)NC(C)C2CC2)c1NC(=O)c1cc(Cn2cc(C(F)(C(F)(F)F)C(F)(F)F)nn2)nn1-c1ncccc1Cl` (stereo not shown) [Example 218], the pest or weed control at 0.02 mg in the series on Boophilus microplus amounted to 100%. Also, the pest or weed control at 100 ppm in the series on adult Musca domestica (100 ppm, after 2 days) was 85%; in the series with Lucilia cuprina larvae (100 ppm, after 2 days), 100%. Moreover, the pest or weed control at 100 g/ha in series [1] and in series [2] was 100% in each case. The chromatographic logP in series [3] (setting [5]) amounted to 3.73.
